Assay results taken from patent US6455550B1, “N-alkanoylphenylalanine derivatives” (Hoffmann-La Roche Inc., priority 1997, dated 2002).
Where two headings read alike, the source gives them in different places.

How the values were obtained:
[1] = biological target: T1, cell-surface VLA-4 (α4β1 integrin) on Ramos cells binding to immobilized VCAM-1 (Homo sapiens, UniProt P05556+P13612); assay: Ramos (VLA-4)/VCAM-1 Cell-Based Screening Assay (cell adhesion); details: for inhibition at 0.01 µM: Conc. 10 nM, Ramos cell adhesion to VCAM-1
T1 construct: Ramos cells bearing cell-surface VLA-4; endogenous in cells; host or cells: Ramos cells (VLA-4); VCAM-1 purified from CHO cell culture media
Source text: Calcein-AM was purchased from Molecular Probes Inc.
VLA-4 (α4β1 integrin) antagonist activity, defined as ability to compete with cell-surface VLA-4 for binding to immobilized VCAM-1, was quantitated using a Ramos-VCAM-1 cell adhesion assay. Ramos cells bearing cell-surface VLA-4, were labeled with a fluorescent dye (Calcein-AM) and allowed to bind VCAM-1 in the presence or absence of test compounds.
Initially, this entailed coating 96 well plates (Nunc Maxisorp) with recombinant human VCAM-1 (100 ng in 100 μl PBS), sealing each plate and allowing the plates to stand at 4° C for Å18 hr. The VCAM-coated plates were subsequently washed twice with 0.05% Tween-20 in PBS, and then blocked for 1hr (room temperature) with 200 μl of Blocking Buffer (1% BSA/0.02% thimerosal) to reduce non-specific binding. Following the incubation with Blocking Buffer, plates were inverted, blotted and the remaining buffer aspirated. Each plate was then washed with 300 μl PBS, inverted and the remaining PBS aspirated.
Test compounds were dissolved in 100% DMSO and then diluted 1:25 in VCAM Cell Adhesion Assay Buffer (4 mM CaCl2, 4 mM MgCl2 in 50 mM TRIS-HCl, pH 7.5) (final DMSO=4%). […] 100 μl/well of each dilution was added to the VCAM-coated plates, followed by 100 μl of Ramos cells (200,000 cells/well in 1% BSA/PBS). […] Plates were inverted to remove non-adherent cells, blotted and 300 μl/well PBS added. Plates were again inverted, blotted and the remaining buffer gently aspirated. 100 μl Lysis Buffer (0.1% SDS in 50 mM TRIS-HCl, pH 8.5) was added to each well and agitated for 2 min on a rotary shaking platform.

[2] = biological target: T2, VLA-4 (α4β1 integrin) binding to immobilized VCAM-1 (Homo sapiens, UniProt P05556+P13612); assay: VLA-4/VCAM-1 Screening Assay (solid-phase, dual antibody ELISA)
T2 construct: followed by 10 μl of Ramos cell-derived VLA-4; endogenous in cells; host or cells: Ramos cells (VLA-4 preparation derived from the cells)
Summary of the method: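 Recombinant human VCAM-1 is coated onto plates and Ramos cell-derived VLA-4 is added with compound (final DMSO 5%) in Tris buffer pH 7.4 with 1 mM MnCl2 and 1 mg/mL BSA, 2 hr at 37° C. Bound VLA-4 is detected by anti-β1 antibody, HRP anti-mouse IgG and K-Blue colorimetry. Results are % inhibition of total binding.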

[3] = IC50 in Ramos Cell Based Assay (nM), Calcein-AM labeled Ramos cells, VCAM-1 coated plates, 45 min at room temperature
[4] = IC50 nM, Ramos cell-derived VLA-4, recombinant human VCAM-1 coated plates, 2 hr at 37° C.
[5] = Calcein-AM labeled Ramos cells, VCAM-1 coated plates, 45 min at room temperature, read-out: IC50 in Ramos Cell Based Assay
[6] = Ramos cell-derived VLA-4, recombinant human VCAM-1 coated plates, 2 hr at 37° C., read-out: IC50

T1 sequence (P13612 34-1032): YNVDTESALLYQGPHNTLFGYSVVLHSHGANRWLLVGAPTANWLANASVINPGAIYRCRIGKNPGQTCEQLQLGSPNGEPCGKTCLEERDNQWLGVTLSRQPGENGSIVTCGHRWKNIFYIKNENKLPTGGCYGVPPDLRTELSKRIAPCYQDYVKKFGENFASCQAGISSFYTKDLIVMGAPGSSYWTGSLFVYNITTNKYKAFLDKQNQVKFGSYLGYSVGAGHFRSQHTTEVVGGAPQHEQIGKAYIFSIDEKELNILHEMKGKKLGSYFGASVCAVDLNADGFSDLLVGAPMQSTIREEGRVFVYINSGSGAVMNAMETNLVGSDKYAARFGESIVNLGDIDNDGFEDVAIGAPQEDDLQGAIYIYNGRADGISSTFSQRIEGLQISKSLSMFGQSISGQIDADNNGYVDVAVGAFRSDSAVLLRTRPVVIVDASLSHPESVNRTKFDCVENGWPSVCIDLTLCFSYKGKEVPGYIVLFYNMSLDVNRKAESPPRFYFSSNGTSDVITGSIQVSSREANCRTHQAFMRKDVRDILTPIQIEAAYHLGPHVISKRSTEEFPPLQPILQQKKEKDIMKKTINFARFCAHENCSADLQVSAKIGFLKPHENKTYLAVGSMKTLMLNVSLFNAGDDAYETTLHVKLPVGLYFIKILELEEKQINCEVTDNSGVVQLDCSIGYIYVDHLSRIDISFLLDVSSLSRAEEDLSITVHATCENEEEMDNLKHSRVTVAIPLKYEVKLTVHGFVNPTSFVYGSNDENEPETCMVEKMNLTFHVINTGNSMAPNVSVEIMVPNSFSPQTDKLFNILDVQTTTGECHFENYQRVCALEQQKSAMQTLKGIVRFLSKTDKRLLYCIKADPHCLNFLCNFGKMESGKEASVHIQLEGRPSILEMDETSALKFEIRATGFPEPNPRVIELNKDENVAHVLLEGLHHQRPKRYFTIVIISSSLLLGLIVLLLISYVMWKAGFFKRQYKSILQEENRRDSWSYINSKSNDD
T1 sequence (P05556 21-798): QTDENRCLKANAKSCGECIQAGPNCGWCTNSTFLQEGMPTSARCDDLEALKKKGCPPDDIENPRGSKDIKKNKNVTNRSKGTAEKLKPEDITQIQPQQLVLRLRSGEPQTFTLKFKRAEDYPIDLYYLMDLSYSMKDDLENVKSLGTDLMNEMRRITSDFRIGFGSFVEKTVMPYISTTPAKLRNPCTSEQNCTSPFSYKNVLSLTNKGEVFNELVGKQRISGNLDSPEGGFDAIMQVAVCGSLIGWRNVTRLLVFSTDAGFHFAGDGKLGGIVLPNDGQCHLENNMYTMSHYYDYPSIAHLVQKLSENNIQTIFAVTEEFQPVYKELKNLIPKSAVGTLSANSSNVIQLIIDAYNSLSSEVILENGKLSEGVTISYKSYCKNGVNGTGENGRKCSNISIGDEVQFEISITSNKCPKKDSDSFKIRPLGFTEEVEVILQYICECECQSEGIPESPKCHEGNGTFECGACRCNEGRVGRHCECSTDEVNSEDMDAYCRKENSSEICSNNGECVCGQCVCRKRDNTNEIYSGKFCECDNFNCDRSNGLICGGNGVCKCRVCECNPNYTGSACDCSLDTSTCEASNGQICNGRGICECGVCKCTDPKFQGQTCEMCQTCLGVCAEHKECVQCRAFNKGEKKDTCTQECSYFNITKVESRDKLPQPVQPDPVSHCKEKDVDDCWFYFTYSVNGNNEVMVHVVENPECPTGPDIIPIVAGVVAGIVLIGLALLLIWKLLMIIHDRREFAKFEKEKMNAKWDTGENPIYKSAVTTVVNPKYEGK
T2 sequence (P13612 34-1032): as the sequence (P13612 34-1032) above
T2 sequence (P05556 21-798): as the sequence (P05556 21-798) above

Compound	IC50 [1, 5] [nM]	IC50 [2, 6] [nM]	further results
NCCC1(C(=O)N[C@@H](Cc2ccc(NC(=O)c3c(Cl)cccc3Cl)cc2)C(=O)O)CCCC1 [Example 252]	–	–	IC50 [1, 3]: 228 nM; IC50 [2, 4]: 5.1 nM
COC(=O)N(C)CCC1(C(=O)N[C@@H](Cc2ccc(NC(=O)c3c(Cl)cccc3Cl)cc2)C(=O)O)CCCC1 [Example 202, 4-[[(2,6-Dichlorophenyl)carbonyl]amino]-N-[[1-[2-[(methoxycarbonyl)(methyl)amino]ethyl]cyclopentyl]carbonyl]-L-phenylalanine]	31	1	–
CC(=O)N(C)CCC1(C(=O)N[C@@H](Cc2ccc(NC(=O)c3c(Cl)cccc3Cl)cc2)C(=O)O)CCCC1 [Example 200, 4-[[(2,6-Dichlorophenyl)carbonyl]amino]-N-[[1-[2-[(acetyl)(methyl)amino]ethyl]cyclopentyl]carbonyl]-L-phenylalanine]	19	0.81	–
Cn1nnnc1-c1ccc(CC2(C(=O)N[C@@H](Cc3ccc(NC(=O)c4c(Cl)cccc4Cl)cc3)C(=O)O)CCCC2)cc1 [Example 55]	18.5	–	IC50 [2, 4]: 0.47 nM
O=C(NCCC1(C(=O)N[C@@H](Cc2ccc(NC(=O)c3c(Cl)cccc3Cl)cc2)C(=O)O)CCCC1)c1cccc(C(F)(F)F)c1 [Example 258]	–	–	IC50 [1, 3]: 1030 nM; IC50 [2, 4]: 14 nM
[N-]=[N+]=NCCC1(C(=O)N[C@@H](Cc2ccc(NC(=O)c3c(Cl)cccc3Cl)cc2)C(=O)O)CCCC1 [Example 58]	–	0.58	IC50 [1, 3]: 47 nM
CNC(=O)NCCC1(C(=O)N[C@@H](Cc2ccc(NC(=O)c3c(Cl)cccc3Cl)cc2)C(=O)O)CCCC1 [Example 187, 4-[[(2,6-Dichlorophenyl)carbonyl]amino]-N-[[1-[2-[[(methylamino)carbonyl]amino]ethyl]cyclopentyl]carbonyl]-L-phenylalanine]	5.7	0.26	–
Cn1nnnc1-c1ccc(CC2(C(=O)N[C@@H](Cc3ccc(NC(=O)c4c(Cl)cccc4Cl)cc3)C(=O)O)CCC2)cc1 [Example 57]	–	–	IC50 [1, 3]: 27 nM; IC50 [2, 4]: 0.42 nM
CC(=O)NCCCCC1(C(=O)N[C@@H](Cc2ccc(NC(=O)c3c(Cl)cccc3Cl)cc2)C(=O)O)CCCC1 [Example 259]	–	–	IC50 [1, 3]: 129 nM; IC50 [2, 4]: 3.6 nM
O=C(NCCC1(C(=O)N[C@@H](Cc2ccc(NC(=O)c3c(Cl)cccc3Cl)cc2)C(=O)O)CCCC1)c1ccncc1 [Example 160]	–	–	IC50 [1]: 328 nM; IC50 [2]: 5.8 nM
C/N=C(\S)NCCC1(C(=O)N[C@@H](Cc2ccc(NC(=O)c3c(Cl)cccc3Cl)cc2)C(=O)O)CCCC1 [Example 192]	–	–	IC50 [1, 3]: 22 nM; IC50 [2, 4]: 0.14 nM
O=C(Nc1ccc(C[C@H](NC(=O)C2(CCN3CCOCC3)CCCC2)C(=O)O)cc1)c1c(Cl)cccc1Cl [Example 256]	–	–	IC50 [1, 3]: 151 nM; IC50 [2, 4]: 2.4 nM
COCCCCC1(C(=O)N[C@@H](Cc2ccc(NC(=O)c3c(Cl)cccc3Cl)cc2)C(=O)O)CCCC1 [Example 250]	28	–	IC50 [2, 4]: 0.32 nM
CC(C)(C)OC(=O)NCC(=O)NCCC1(C(=O)N[C@@H](Cc2ccc(NC(=O)c3c(Cl)cccc3Cl)cc2)C(=O)O)CCCC1 [Example 216, 4-[[(2,6-dichlorophenyl)carbonyl]amino]-N-[[1-[2-[[2-[[(1,1-dimethylethoxy)carbonyl]amino]-1-oxoethyl]amino]ethyl]cyclopentyl]carbonyl]-L-phenylalanine]	356	2.9	–
N#CCC1(C(=O)N[C@@H](Cc2ccc(NC(=O)c3c(Cl)cccc3Cl)cc2)C(=O)O)CCCC1 [Example 272]	–	1	IC50 [1, 3]: 96 nM
CCCCC1(C(=O)N[C@@H](Cc2ccc(NC(=O)c3c(Cl)cccc3Cl)cc2)C(=O)O)CCCC1 [Example 270]	–	–	IC50 [1, 3]: 150 nM; IC50 [2, 4]: 1.1 nM
NCC(=O)NCCC1(C(=O)N[C@@H](Cc2ccc(NC(=O)c3c(Cl)cccc3Cl)cc2)C(=O)O)CCCC1 [Example 217, 4-[[(2,6-dichlorophenyl)carbonyl]amino]-N-[[1-[2-[(2-amino-1-oxoethyl)amino]ethyl]yclopentyl]carbonyl]-L-phenylalanine]	211	2	–
Cn1nnnc1-c1cccc(CC2(C(=O)N[C@@H](Cc3ccc(NC(=O)c4c(Cl)cccc4Cl)cc3)C(=O)O)CCC2)c1 [Example 56]	31.5	0.94	–
CCCC(=O)N1C(Cc2cccnc2)C(=O)N(c2ccc(CC(NC(=O)C3(CCNC(C)=O)CCCC3)C(=O)O)cc2)C1c1ccc(Cl)cc1 (stereo not drawn) [Example 304]	–	–	inhibition at 0.01 µM [1]: 35%
CCCC(=O)N1C(Cc2ccc(OC)cc2)C(=O)N(c2ccc(CC(NC(=O)C3(CCNC(C)=O)CCCC3)C(=O)O)cc2)C1c1ccc(Cl)cc1 (single isomer, unassigned) [Example 288]	–	–	inhibition at 0.01 µM [1]: 92%
COc1ccc(C[C@@H]2C(=O)N(c3ccc(C[C@H](NC(=O)C4(CCNC(C)=O)CCCC4)C(=O)O)cc3)C(CCc3ccccc3)N2C(C)=O)cc1 (single isomer, unassigned) [Example 293]	40	–	–
CCCC(=O)N1C(Cc2ccccc2)C(=O)N(c2ccc(CC(NC(=O)C3(CCNC(C)=O)CCCC3)C(=O)O)cc2)C1c1ccc(Cl)cc1 (single isomer, unassigned) [Example 321]	–	–	inhibition at 0.01 µM [1]: 59%
CC(=O)NCCC1(C(=O)NC(Cc2ccc(N3C(=O)C(C)N(C(C)=O)C3c3ccccc3)cc2)C(=O)O)CCCC1 (single isomer, unassigned) [Example 342]	–	–	inhibition at 0.01 µM [1]: 24%

Now from value to compound, other results behind:

IC50 [1, 5] [nM]	IC50 [2, 6] [nM]	Compound	further results
36.5	0.63	COc1ccc(CC2(C(=O)N[C@@H](Cc3ccc(NC(=O)c4c(Cl)cccc4Cl)cc3)C(=O)O)CCCC2)cc1 [Example 43, 4-[[(2,6-Dichlorophenyl)carbonyl]amino]-N-[[1-[(4-methoxyphenyl)methyl]cyclopentyl]carbonyl]-L-phenylalanine]	–
23	1.2	COCC(=O)NCCC1(C(=O)N[C@@H](Cc2ccc(NC(=O)c3c(Cl)cccc3Cl)cc2)C(=O)O)CCCC1 [Example 162]	–
54.5	0.26	Cc1cc([N+](=O)[O-])ccc1C(=O)Nc1ccc(C[C@H](NC(=O)C2(C)CC2(Cl)Cl)C(=O)O)cc1 (stereo partly drawn) [Example 100]	–
34.5	0.69	COc1ccc(CC2(C(=O)N[C@@H](Cc3ccc(NC(=O)c4c(Cl)cccc4Cl)cc3)C(=O)O)CCCC2)cc1 [Example 95]	–
85	2.4	COC(=O)CCC(=O)NCCC1(C(=O)N[C@@H](Cc2ccc(NC(=O)c3c(Cl)cccc3Cl)cc2)C(=O)O)CCCC1 [Example 163]	–
19	–	CCCC(=O)N1C(c2ccccc2)N(c2ccc(C[C@H](NC(=O)C3(CCNC(C)=O)CCCC3)C(=O)O)cc2)C(=O)[C@H]1C (single isomer, unassigned) [Example 344]	–
360	2	CC(C)(C)OC(=O)NCCC1(C(=O)N[C@@H](Cc2ccc(NC(=O)c3c(Cl)cccc3Cl)cc2)C(=O)O)CCCC1 [Example 254]	–
2.9	–	COc1ccc(C[C@@H]2C(=O)N(c3ccc(C[C@H](NC(=O)C4(CCNC(C)=O)CCCC4)C(=O)O)cc3)C(c3ccccc3)N2C(=O)COc2ccccc2)cc1 (single isomer, unassigned) [Example 284]	–
650	–	O=C(NCCC1(C(=O)N[C@@H](Cc2ccc(NC(=O)c3c(Cl)cccc3Cl)cc2)C(=O)O)CCCC1)Nc1ccccc1[N+](=O)[O-] [Example 190]	–
130	–	COC(=O)NC(=O)NCCC1(C(=O)N[C@@H](Cc2ccc(NC(=O)c3c(Cl)cccc3Cl)cc2)C(=O)O)CCCC1 [Example 189]	–
